Consider twelve compounds from ChEMBL document CHEMBL1201862, “PubChem BioAssay data set” (2004).

Structures are written as SMILES.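 Briefly, cells in 96-well plates were exposed to five compound concentrations for 48 h, and endpoints were estimated by linear interpolation. GI50: concentration for 50% inhibition of growth.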 Calls of active or inactive are those of the source. Cut-off read from the data, not from the text of the source: active = GI50 up to about 1.1 µM and inactive = higher. Bounds are passed on as bounds.

Test systems include SK-MEL-28; OVCAR-5; OVCAR-8; OVCAR-4; MOLT-4; SF-295; HOP-92; K562; A549; CAKI-1; UACC-62; HOP-62; CCRF-CEM; ACHN; HL-60; HCC 2998; LOX IMVI; OVCAR-3; KM-20L2; RXF 393.
Holding throughout (test): NCI anticancer screen, dose series, 48 h

As to `COC(=O)C#Cc1cccc(OC)c1OC`, the GI50 is 38.9 µM (inactive) in the test on SK-MEL-28; 22.5 µM (inactive) in the test with OVCAR-5; 40.3 µM (inactive) in the test on OVCAR-8; 20.4 µM (inactive) with OVCAR-4; 14 µM (inactive) in the test on MOLT-4; 40.5 µM (inactive) in the test on SF-295. The GI50 in the test on HOP-92 was 25.8 µM (inactive); in the test on K562, 21.1 µM (inactive); in the test with A549, 37.5 µM (inactive); with CAKI-1, 28.6 µM (inactive); in the test on UACC-62, 48.3 µM (inactive); in the test on HOP-62, 98.2 µM (inactive). The GI50 in the test on CCRF-CEM was 26.6 µM (inactive); with ACHN, 60 µM (inactive); in the test with HL-60 it was 33 µM (inactive); in the test on HCC 2998 it was 24.4 µM (inactive); in the test with LOX IMVI, 33.7 µM (inactive); in the test on OVCAR-3 it was 41.1 µM (inactive).
Take `CSc1nc(NC2OCC(O)C(O)C2O)c(N)c(=O)[nH]1` (stereo not given): the GI50 with SK-MEL-28, in the test with OVCAR-5, in the test on OVCAR-8, with OVCAR-4, in the test with MOLT-4 and in the test on SF-295 was > 100 µM (inactive) each time. For the same compound, the GI50 in the test on KM-20L2, in the test on HOP-92, in the test with K562, in the test with A549, with RXF 393 and in the test on UACC-62 was > 100 µM (inactive) each time. Further, the GI50 in the test with HOP-62, in the test on CCRF-CEM, in the test on HL-60, with HCC 2998, in the test with LOX IMVI and with OVCAR-3 was > 100 µM (inactive) in each case.
`OCCNCN(CNCCO)c1nc(N(CNCCO)CNCCO)nc(N(CNCCO)CNCCO)n1`: the GI50 in the test on SK-MEL-28 was 0.04 µM (active); in the test on OVCAR-5, 0.146 µM (active); in the test with OVCAR-8, 0.0755 µM (active); with OVCAR-4, 0.0715 µM (active); in the test on MOLT-4, 0.0873 µM (active); in the test on SF-295 it was 0.082 µM (active). Moreover, the GI50 is 0.103 µM (active) in the test on KM-20L2; 0.0743 µM (active) with HOP-92; 0.04 µM (active) in the test on K562; 0.0711 µM (active) in the test on A549; 0.0676 µM (active) in the test on RXF 393; 0.0687 µM (active) in the test on HOP-62. Also, the GI50 with CCRF-CEM was 0.04 µM (active); in the test with ACHN it was 0.04 µM (active); in the test with LOX IMVI, 0.0916 µM (active); in the test with OVCAR-3, 0.0908 µM (active).
`N/C(=C\c1ccc(/C=C(\NC(=O)c2ccccc2)c2nc3c([nH]2)C(=O)c2ccccc2C3=O)cc1)c1nc2c([nH]1)C(=O)c1ccccc1C2=O`: the GI50 was 16.8 µM (inactive) in the test on SK-MEL-28; 18.9 µM (inactive) in the test on OVCAR-5; 15.8 µM (inactive) with OVCAR-8; 11.2 µM (inactive) in the test on OVCAR-4; 6.7 µM (inactive) with MOLT-4; 16.5 µM (inactive) in the test with SF-295. Further, the GI50 in the test with KM-20L2 was 16.5 µM (inactive); with HOP-92, 7.83 µM (inactive); in the test with K562 it was 14.9 µM (inactive); in the test with A549, 14.2 µM (inactive); with CAKI-1 it was 14.3 µM (inactive); with RXF 393, 11.8 µM (inactive). Moreover, the GI50 was 11.5 µM (inactive) with UACC-62; 12.3 µM (inactive) in the test with CCRF-CEM; 15.6 µM (inactive) in the test on ACHN; 10 µM (inactive) with HL-60; 18.1 µM (inactive) with LOX IMVI; 13.6 µM (inactive) in the test on OVCAR-3.
`COc1ccc(/C=N/N=C(N)N)c(C(=O)O)c1OC`: the GI50 in the test with SK-MEL-28, in the test on OVCAR-8, in the test on OVCAR-4, in the test with MOLT-4, with SF-295 and with KM-20L2 was > 100 µM (inactive) throughout. For the same compound, the GI50 with K562, in the test on A549, in the test with CAKI-1, with RXF 393, with UACC-62 and with CCRF-CEM was > 100 µM (inactive) throughout. The GI50 with ACHN, in the test on HL-60 and in the test on OVCAR-3 was > 100 µM (inactive) in each case.
Turning to `CCOC(=O)/C(C#N)=C1/SC(C(=O)N/N=C/c2ccc(OC)cc2)=C(N)N1c1ccccc1`, the GI50 in the test on SK-MEL-28 is 35.6 µM (inactive); with OVCAR-5, > 100 µM (inactive); with OVCAR-8 it was > 100 µM (inactive); with MOLT-4 it was > 100 µM (inactive); in the test on SF-295, 16.1 µM (inactive); in the test with HOP-92, 3.82 µM (inactive). Further, the GI50 was 0.205 µM (active) in the test with K562; > 100 µM (inactive) with A549; > 100 µM (inactive) in the test on UACC-62; 71 µM (inactive) in the test on HOP-62; > 100 µM (inactive) in the test with CCRF-CEM; 28.9 µM (inactive) with ACHN. The GI50 in the test on HL-60, in the test on HCC 2998 and in the test on OVCAR-3 was > 100 µM (inactive) throughout.
As to `C/N=c1/ssc(=S)n1C(C)C`, the GI50 was 1.4 µM (inactive) in the test on SK-MEL-28; 25.6 µM (inactive) in the test on OVCAR-8; 10.8 µM (inactive) in the test with MOLT-4; 33.9 µM (inactive) in the test on SF-295; 16.7 µM (inactive) in the test on KM-20L2; 14.3 µM (inactive) with HOP-92. Moreover, the GI50 was 3.06 µM (inactive) in the test with K562; 25.6 µM (inactive) in the test with A549; 21.7 µM (inactive) in the test with CAKI-1; 7.5 µM (inactive) in the test on RXF 393; 12 µM (inactive) in the test on UACC-62; 18.9 µM (inactive) in the test with HOP-62. Further, the GI50 is 0.673 µM (active) in the test with CCRF-CEM; 20.8 µM (inactive) with ACHN; 2.3 µM (inactive) in the test on HL-60; 13.9 µM (inactive) in the test on HCC 2998; 12.4 µM (inactive) in the test on OVCAR-3.
Regarding `Nc1[nH]cnc2ncnc1-2` [ADENINE], the GI50 was > 243 µM (inactive) with SK-MEL-28; > 250 µM (inactive) with OVCAR-5; 105 µM (inactive) in the test on OVCAR-8; > 126 µM (inactive) in the test on OVCAR-4; 108 µM (inactive) in the test with SF-295; > 250 µM (inactive) in the test with KM-20L2. The GI50 was 146 µM (inactive) in the test with HOP-92; > 248 µM (inactive) with K562; 30.1 µM (inactive) in the test with RXF 393; 48.1 µM (inactive) with UACC-62; 58.9 µM (inactive) with HOP-62; 36.6 µM (inactive) in the test on HL-60. The GI50 in the test on HCC 2998 was > 125 µM (inactive); in the test with LOX IMVI, 140 µM (inactive).
Take `O=C(O[C@@H](/C=C/c1ccccc1)P1(=O)N(Cc2ccccc2)[C@H]2CCCC[C@@H]2N1Cc1ccccc1)c1ccccc1`: the GI50 was 7.78 µM (inactive) with SK-MEL-28; 3.86 µM (inactive) in the test on OVCAR-5; 4.3 µM (inactive) with OVCAR-8; 3.59 µM (inactive) in the test with OVCAR-4; 3.15 µM (inactive) with SF-295; 2.86 µM (inactive) with HOP-92. The GI50 is 3.47 µM (inactive) in the test with K562; 3.61 µM (inactive) with A549; 2.66 µM (inactive) in the test on CAKI-1; 2 µM (inactive) in the test on RXF 393; 2.12 µM (inactive) in the test with UACC-62; 2.82 µM (inactive) in the test with HOP-62. Moreover, the GI50 with CCRF-CEM was 3.03 µM (inactive); in the test with ACHN, 2.32 µM (inactive); in the test with HL-60 it was 2.39 µM (inactive); in the test on HCC 2998, 2.58 µM (inactive); in the test with LOX IMVI, 3.54 µM (inactive); with OVCAR-3, 3.48 µM (inactive).
In the case of `Nc1nc(SCCNC(=O)CCc2ccc(O)c(I)c2)nc2c1ncn2C1OC(CO)C(O)C1O` (stereo not given), the GI50 with SK-MEL-28, in the test with OVCAR-5, with OVCAR-8, with OVCAR-4, with MOLT-4 and in the test on SF-295 was > 100 µM (inactive) throughout. Besides, the GI50 in the test on KM-20L2, in the test on HOP-92, in the test with K562, with A549, in the test on RXF 393 and in the test on UACC-62 was > 100 µM (inactive) each time. Further, the GI50 in the test with HOP-62, in the test with CCRF-CEM, in the test with ACHN, with HL-60, in the test on HCC 2998 and with OVCAR-3 was > 100 µM (inactive) in each case.
For `CCOC(=O)c1csc(NC(=O)CCN(CC)CC)n1`, the GI50 in the test on SK-MEL-28 is 27.5 µM (inactive); in the test on OVCAR-5, > 100 µM (inactive); in the test with OVCAR-8, 30.7 µM (inactive); in the test on OVCAR-4 it was 57.4 µM (inactive); in the test on MOLT-4, 32.7 µM (inactive); in the test on SF-295 it was > 100 µM (inactive). The GI50 was 24.5 µM (inactive) in the test with HOP-92; 71 µM (inactive) in the test with K562; 55 µM (inactive) in the test with A549; 20.5 µM (inactive) with CAKI-1; 49.4 µM (inactive) in the test on RXF 393; 45 µM (inactive) in the test with UACC-62. The GI50 in the test on HOP-62 was > 100 µM (inactive); in the test with CCRF-CEM it was 27.5 µM (inactive); in the test with ACHN, 42.9 µM (inactive); in the test with HL-60 it was 39.1 µM (inactive); in the test with HCC 2998, 49.8 µM (inactive); with LOX IMVI, 33.2 µM (inactive). Besides, in the test on OVCAR-3, the GI50 is 26.8 µM (inactive).
With `COc1nc(Cl)c(Cl)c(Cl)n1.COc1nc(Cl)nc(Cl)c1Cl`, the GI50 was 14 µM (inactive) with SK-MEL-28; 30.9 µM (inactive) in the test on OVCAR-5; 2.89 µM (inactive) in the test on OVCAR-8; 6.07 µM (inactive) in the test with OVCAR-4; 0.603 µM (active) with MOLT-4; 7.16 µM (inactive) in the test with SF-295. Also, the GI50 is 2.31 µM (inactive) with HOP-92; 0.859 µM (active) in the test on K562; 18.1 µM (inactive) in the test with A549; 0.0254 µM (active) with CAKI-1; 10.7 µM (inactive) with RXF 393; 8.93 µM (inactive) in the test on UACC-62. Moreover, the GI50 is 2.92 µM (inactive) with HOP-62; 2.7 µM (inactive) in the test with CCRF-CEM; 7.59 µM (inactive) in the test with ACHN; 5.47 µM (inactive) in the test on HL-60; 0.252 µM (active) in the test with HCC 2998; 2.66 µM (inactive) with LOX IMVI. The GI50 in the test with OVCAR-3 is 3.95 µM (inactive).
